Among the data in the SangsterLogP compilation are logP and logD values, retold here.

Series [1] can be described thus: method code SF, from DOI: 10.1021/bk-1995-0606.ch005.
Series [2] is described as follows: method code SF-AS, from DOI: 10.1016/0045-6535(83)90122-4.
A short description of series [3]: method code SF-RC, from DOI: 10.1021/es60170a013.
Experiment in series [4]: not given
The source holds these as a separate data set.

Series [5] is described as follows: method code SF-AS, from DOI: 10.1021/j150653a049.
Series [6] is described as follows: method code SF-HPLC, from PMID: 3799213. The note with it: pH 4.0.
Experiment in series [7]: not given
This is another data set of the same source.

A short description of series [8]: method code SF, from DOI: 10.1002/1522-2675(20001004)83:10<2836::aid-hlca2836>3.0.co;2-g.
A short description of series [9]: method code SF-AS, from DOI: 10.1007/s001289900104, PMID: 8661852.
A short description of series [10]: method code SF-AS, from DOI: 10.1021/bi00730a008, PMID: 4688860.
Series [11] can be described thus: method code SF-AS, from DOI: 10.1021/jm00284a014, PMID: 5544400.
Series [12] can be described thus: from Kurihara, N.; Yamakawa, K.; Fujita, T.; Nakajima, M. (1980). Studies on BHC isomers and related compounds. XXVI. Anaerobic degradation of tetra-, penta- and hexachlorocyclohexane isomers by rat liver ….
Experiment in series [13]: not given
This is another data set of the same source.

Experiment in series [14]: not given
The source holds these as a separate data set.

The nature of series [15]: method code SF-AS, from DOI: 10.1002/jhet.5570150704.
Experiment in series [16]: not given
The source holds these as a separate data set.

Series [17] can be described thus: method code SF-C, from DOI: 10.1021/ja00901a033.
Series [18] in a line: method code SF-AS, from Korenman, Y.; Danilov, N. (1990). Extraction of alkyl salicylates from aqueous media. Journal of Applied Chemistry of the USSR, 63(1)125-129.
Series [19] in a line: method code SF-AS, from DOI: 10.1248/cpb.32.2380.
Experiment in series [20]: not given
This is another data set of the same source.

The nature of series [21]: method code SF-C, from DOI: 10.1038/194178b0.
A short description of series [22]: method code SF-AS, from DOI: 10.1016/0378-5173(90)90042-3.
A short description of series [23]: method code SF-GLC, from DOI: 10.1016/0378-4274(86)90173-6, PMID: 3952768.
Series [24] can be described thus: method code SF-GLC, from PMID: 6629728. The note with it: pH 7.4.
Series [25] is described as follows: method code SF-AS, from DOI: 10.1016/j.bioorg.2006.09.003, PMID: 17078995. The following applies: pH 7.4.
Series [26] in a line: method code SF, from DOI: 10.1248/yakushi1947.96.10_1169, PMID: 1033993. The note with it: pH 0.7.
A short description of series [27]: method code SF-AS, from DOI: 10.1007/bf01964075. The note with it: pH 2.1.
The nature of series [28]: method code SF-AS, from DOI: 10.1111/1523-1747.ep12263302, PMID: 6470515.
Experiment in series [29]: not given
The source holds these as a separate data set.

The structures appear in SMILES notation.

In series [1], `COP(=S)(OC)Oc1ccc([N+](=O)[O-])cc1` came in with a logP of 2.86.

As to `NC(=O)c1cccnc1`, the logP was -0.34.

As for `O=[N+]([O-])c1cc(Cl)c(Cl)cc1Cl`, the logP in series [2] is 3.48.

Consider `Clc1cccc(Cl)c1`, for which the logP in series [3] amounted to 3.44.

Regarding `CC(C)c1cc(C(C)C)c(C(=O)O)c(C(C)C)c1`, the logP in series [4] was 4.05.

Consider `OCc1cc(Br)ccc1O`, for which the logP in series [5] worked out at 1.72.

By logD is commonly meant the decadic logarithm of the distribution of all forms, ionised or not, between an organic phase and buffer at a given pH. A lower logD goes with lower lipophilicity. Consider `CCOC(=O)OCn1cc(F)c(=O)[nH]c1=O`, for which the logD in series [6] is -0.04.

`Clc1ccc(Cl)c(Cl)c1` yielded a logP in series [7] of 4.03.

Compound `Nc1ccccc1-c1ccccc1` gave a logD in [8] (pH 5.5) of 2.64.

In series [9], `O=[N+]([O-])c1c(Cl)nc(-c2ncncn2)nc1Cl` had a logP of 2.29.

In turn, `OCc1cccc(O)c1` had a logP in series [5] of 0.5.

As for `O=CNc1ccc(Cl)cc1`, the logP in series [10] turned out to be 2.04.

In [11], `O=c1[nH]c2ccccc2[nH]1` yielded a logP of 1.12.

Take `O=NN(c1ccccc1)c1ccccc1`: the logP in series [3] amounted to 3.13.

Compound `CCCNC(=O)c1cccnc1` showed a logP of 0.66.

Compound `O=[N+]([O-])c1c(Cl)c(Cl)cc(Cl)c1Cl` had a logP in series [2] of 3.89.

The compound `COC(=O)c1ccccc1CS(=O)(=O)Nc1nc(OC)cc(OC)n1` showed a logD in series [1] (pH 5.0) of 2.4.

In the case of `ClC1=CC(Cl)C(Cl)C(Cl)C1Cl` (configuration not stated), the logP in series [12] stood at 3.61.

In [13], `COc1cc(N)cc(OC)c1` came in with a logP of 0.99.

`CCCCC(CCC)C(=O)O` (configuration not stated) returned a logP in [14] of 3.01.

For the compound `O=CNc1cccc(Cl)c1`, in series [10], the logP came out at 1.9.

Consider `Cc1noc(-c2ccccn2)n1`, for which the logP in series [15] was determined as 0.89.

Consider `N#Cc1c(Cl)cccc1Cl`, for which the logP in series [16] was 2.65.

`O=C(O)COc1ccc(I)cc1`: the logP in series [17] is 2.69.

In turn, `COC(=O)c1ccccc1O` gave a logP in [18] of 2.08.

`CN1C(CSCC(F)(F)F)Nc2cc(Cl)c(S(N)(=O)=O)cc2S1(=O)=O` (configuration not stated) registered a logP in series [19] of 1.9.

Consider `O=C(O)C(=O)Nc1ccc(Cl)cc1`, for which the logP in series [20] is 2.08.

Take `O=C(O)COc1cccc(Br)c1`: the logP in [21] worked out at 2.4.

The compound `Cc1ccc(OCC(=O)O)cc1` showed a logP in [17] of 1.95.

Compound `CCCCOC(=O)c1cc(=O)[nH]c(=O)[nH]1` yielded a logP in series [22] of 1.33.

Consider `CCCC(C)CCC(C)=O` (configuration not stated), for which, in [23], the logP was 2.92.

Compound `C=CC1CCC2OC2C1` (configuration not stated) gave a logD in series [24] of 2.08.

`Clc1cc(-c2ncncn2)c(Cl)nn1` gave a logP in series [9] of 0.84.

For the compound `C1CC2OC2CC1C1CO1` (configuration not stated), the logD in [24] worked out at 0.44.

In [20], `O=C(O)CONC(=O)c1c(Cl)cccc1Cl` had a logP of 0.83.

With `COc1cccc(OC)c1C(=O)O`, the logP in [4] came to 0.95.

`CCC(=O)OCCc1ccc(O)c(OC)c1` returned a logD in series [25] of 2.33.

The compound `CCC1(C2CCCCC2)C(=O)NC(=O)N(C)C1=O` (configuration not stated) had a logD in series [26] of 2.

With `CCCCCCCCCC(C)=O`, the logP in series [23] turned out to be 4.09.

Compound `CCCOC(=O)c1ccccc1O` returned a logP in series [18] of 3.8.

`Cc1ncn(-c2ccc(Cl)cc2)c(=O)c1C(=O)O` gave a logP in series [20] of 2.26.

As for `N#Cc1ccc(OCC(=O)O)cc1`, the logP in series [17] was determined as 1.11.

On to `CNC(=O)C(C)NC(C)=O` (racemic), for which the logD in series [27] is -1.21.

For the compound `NS(=O)(=O)c1cc2c(cc1C(F)(F)F)NCNS2(=O)=O`, the logP in series [19] stood at 0.36.

The compound `COc1cc(CCOC(C)=O)ccc1O` had a logD in [25] of 1.5.

Consider `O=[N+]([O-])c1c(Cl)c(Cl)c(Cl)c(Cl)c1Cl`, for which the logP in series [7] was 4.64.

In the case of `OCCc1ccc(O)c(O)c1`, the logD in series [25] was 0.09.

Consider `CCCCOC(=O)c1ccccc1O`, for which the logP in series [18] stood at 4.63.

In [22], `CC(C)OC(=O)c1cc(=O)[nH]c(=O)[nH]1` yielded a logP of 0.81.

In turn, `Nc1ccc(N)cc1` yielded a logP in series [28] of -0.3.

As to `CCCN1CCCN(CCC)C1=S`, the logP in [11] was found to be 2.83.

On to `O=C(OCn1c(=O)[nH]cc(F)c1=O)Oc1ccccc1`, for which, in [6], the logD was found to be 1.11.

`COc1ccc(S(N)(=O)=O)cc1` showed a logP in series [29] of 0.48.

Consider `C=CCC1(CC)C(=O)NC(=O)N(C)C1=O` (configuration not stated), for which, in series [26], the logD stood at 1.35.

As to `CC(=O)CCC(C)C`, the logP in series [23] stood at 1.88.

`Nc1ccc(Cl)c(N)c1` returned a logP in series [28] of 0.85.

Compound `ClC1C=CC(Cl)C(Cl)C1Cl` (configuration not stated) yielded a logP in [12] of 3.08.

In series [6], `CCOC(=O)OCn1c(=O)[nH]cc(F)c1=O` had a logD of 0.15.

With `OCc1c(F)cccc1F`, the logP in [29] stood at 1.12.

In series [7], `NC(=O)c1c(Cl)cccc1Cl` registered a logP of 1.25.

As to `O=[N+]([O-])c1ccc(Cl)c(Cl)c1`, the logP in [2] was 3.12.

`Cc1nnc(-c2ccccn2)o1` returned a logP in [15] of 0.46.

As to `CCNC(=O)c1cccnc1`, the logP amounted to 0.31.

Take `COc1ccc(Cl)cc1`: in series [3], the logP is 2.78.

As for `C1COC2CC2C1` (configuration not stated), in series [24], the logD came to 1.26.

`C1=CCCC=CCCC=CCC1`: the logP in series [16] worked out at 4.12.

Consider `C1=C\CC/C=C\CC/1`, for which, in [16], the logP worked out at 3.16.

The compound `CCc1cccc(OCC(=O)O)c1` registered a logP in series [21] of 2.3.

As for `CCCC(CC)C(=O)O` (configuration not stated), the logP in series [14] turned out to be 2.23.

`CCCC(C)C(=O)O` (configuration not stated) gave a logP in [14] of 1.8.

Regarding `CNCCc1ccccc1`, the logD in series [8] (pH 12.5) came out at 1.68.

`Cc1ccc(O)c(CO)c1`: the logP in series [5] worked out at 0.97.

Consider `COC(=O)Nc1ccccc1`, for which the logP in [1] came to 1.76.

Compound `ClC1=C(Cl)C(Cl)C(Cl)C(Cl)C1Cl` (configuration not stated) returned a logP in series [12] of 4.31.

As for `NS(=O)(=O)c1cc2c(cc1Cl)N=CNS2(=O)=O`, the logP in [19] was -0.1.

In series [4], `Nc1c(Cl)c(F)nc(OCC(=O)O)c1Cl` displayed a logP of 1.74.

With `CCCOC(=O)c1cc(=O)[nH]c(=O)[nH]1`, in series [22], the logP is 1.1.

As for `Cc1nonc1-c1ccccn1`, the logP in [15] worked out at 2.09.

Take `CCNc1nc(NCC)nc(SC)n1`: in [13], the logP was found to be 2.63.

On to `CCC1C(=O)NC(=O)NC1=O`, for which the logD in [26] was -0.35.

For the compound `Oc1cc(O)nc(-c2ncncn2)n1`, the logP in series [9] is 1.49.

In the case of `S=c1[nH]c2ccccc2[nH]1`, the logP in series [11] came out at 1.66.

In the case of `Nc1cc(Cl)cc(Cl)c1`, the logP in [13] was 2.6.

As for `O=C(O)COc1ccc(Cl)cc1`, the logP in series [21] stood at 2.23.

As to `C1=C(c2ccccc2)CCN(c2ccccc2)C1`, the logP in series [29] worked out at 2.71.

The compound `CC(=O)c1ccc(NC=O)cc1` showed a logP in [10] of 0.94.

Regarding `Nc1cc([N+](=O)[O-])ccc1O`, the logP in series [28] came to 1.13.
